ChEMBL document CHEMBL4004887, “Design, synthesis and in vitro activity of 1,4-disubstituted piperazines and piperidines as triple reuptake inhibitors” (Bioorg Med Chem, 2017)

Experiments:
Type in all cases: cell-based
[1] = target: Sodium-dependent serotonin transporter (Homo sapiens, UniProt P31645); assay: Inhibition of [3H]-5-hydroxytryptamine reuptake in human SERT expressed in HEK293 cells by microbeta liquid scintillation counting method
[2] = target: Sodium-dependent noradrenaline transporter (Homo sapiens, UniProt P23975); assay: Inhibition of […] reuptake in human NET expressed in HEK293 cells by microbeta liquid scintillation counting method
[3] = target: Sodium-dependent dopamine transporter (Homo sapiens, UniProt Q01959); assay: Inhibition of […] reuptake in human DAT expressed in HEK293 cells by microbeta liquid scintillation counting method
Chain of Sodium-dependent dopamine transporter (Q01959 whole entry): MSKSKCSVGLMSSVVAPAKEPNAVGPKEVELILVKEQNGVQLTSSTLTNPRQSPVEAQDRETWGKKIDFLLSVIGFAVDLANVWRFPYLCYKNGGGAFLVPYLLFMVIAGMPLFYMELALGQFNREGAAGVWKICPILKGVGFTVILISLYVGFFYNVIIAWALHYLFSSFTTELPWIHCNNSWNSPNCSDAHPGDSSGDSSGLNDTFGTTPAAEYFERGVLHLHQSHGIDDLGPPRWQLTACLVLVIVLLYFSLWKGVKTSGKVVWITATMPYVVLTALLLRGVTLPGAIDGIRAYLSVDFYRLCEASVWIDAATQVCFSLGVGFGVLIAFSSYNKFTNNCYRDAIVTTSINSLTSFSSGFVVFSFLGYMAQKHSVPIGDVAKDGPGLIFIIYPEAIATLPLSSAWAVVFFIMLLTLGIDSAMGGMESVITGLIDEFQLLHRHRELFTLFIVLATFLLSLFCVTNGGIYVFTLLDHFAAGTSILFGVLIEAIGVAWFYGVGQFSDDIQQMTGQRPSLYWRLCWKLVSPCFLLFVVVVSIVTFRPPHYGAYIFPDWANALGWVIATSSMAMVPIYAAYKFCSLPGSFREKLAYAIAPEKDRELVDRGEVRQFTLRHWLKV

Chain of Sodium-dependent noradrenaline transporter (P23975 whole entry): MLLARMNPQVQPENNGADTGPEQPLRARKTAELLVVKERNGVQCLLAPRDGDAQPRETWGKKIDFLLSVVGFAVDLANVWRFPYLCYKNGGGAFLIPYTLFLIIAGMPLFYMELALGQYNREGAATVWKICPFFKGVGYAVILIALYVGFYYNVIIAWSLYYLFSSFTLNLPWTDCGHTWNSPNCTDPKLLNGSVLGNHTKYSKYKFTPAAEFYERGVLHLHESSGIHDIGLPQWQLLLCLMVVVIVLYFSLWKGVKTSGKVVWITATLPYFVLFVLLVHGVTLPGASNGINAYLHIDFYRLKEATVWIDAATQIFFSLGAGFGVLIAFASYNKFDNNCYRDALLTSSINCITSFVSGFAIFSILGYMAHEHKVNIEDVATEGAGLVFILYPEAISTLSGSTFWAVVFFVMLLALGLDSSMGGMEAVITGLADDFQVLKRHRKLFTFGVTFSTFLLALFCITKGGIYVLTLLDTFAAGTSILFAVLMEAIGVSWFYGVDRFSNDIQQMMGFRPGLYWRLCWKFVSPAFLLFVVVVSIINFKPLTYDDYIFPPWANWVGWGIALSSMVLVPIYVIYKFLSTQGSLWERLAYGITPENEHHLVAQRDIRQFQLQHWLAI
Chain of Sodium-dependent serotonin transporter (P31645 whole entry): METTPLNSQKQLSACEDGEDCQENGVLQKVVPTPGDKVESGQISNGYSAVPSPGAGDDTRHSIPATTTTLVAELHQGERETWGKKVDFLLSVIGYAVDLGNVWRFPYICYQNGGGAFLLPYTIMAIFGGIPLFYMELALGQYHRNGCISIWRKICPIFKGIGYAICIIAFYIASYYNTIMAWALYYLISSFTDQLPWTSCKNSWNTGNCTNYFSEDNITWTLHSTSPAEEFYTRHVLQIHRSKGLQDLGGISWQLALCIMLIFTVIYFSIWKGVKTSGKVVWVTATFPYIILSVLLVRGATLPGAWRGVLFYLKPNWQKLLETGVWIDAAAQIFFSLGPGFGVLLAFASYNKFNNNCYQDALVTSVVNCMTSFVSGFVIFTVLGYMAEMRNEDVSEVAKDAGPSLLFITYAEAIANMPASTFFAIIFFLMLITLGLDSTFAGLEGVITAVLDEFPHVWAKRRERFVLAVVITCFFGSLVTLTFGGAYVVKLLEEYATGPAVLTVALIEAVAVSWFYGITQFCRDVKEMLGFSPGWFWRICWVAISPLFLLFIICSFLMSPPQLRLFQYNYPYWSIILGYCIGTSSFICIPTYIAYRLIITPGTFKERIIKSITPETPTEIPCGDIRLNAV

Row | Structure (SMILES) | IC50 [1] [µM] | IC50 [2] [µM] | IC50 [3] [µM]
1 | O=C(NCCCN1CCC(Cc2ccccc2)CC1)C(c1ccccc1)c1ccccc1 | > 10 | 2.21 | 1.07
2 | O=C(NCCCN1CCC(Cc2ccccc2)CC1)C(c1ccc(Cl)cc1)c1ccc(Cl)cc1 | 7.67 | 2.02 | 1.35
3 | O=C(NCCN1CCC(Cc2ccccc2)CC1)C(c1ccccc1)c1ccccc1 | > 10 | 1.68 | 0.19
4 | O=C(NCCN1CCC(Cc2ccccc2)CC1)C(c1ccc(Cl)cc1)c1ccc(Cl)cc1 | > 10 | 8.03 | 0.63
5 | C(=C\c1ccccc1)/CN1CCN(CCCn2nnnc2C(c2ccccc2)c2ccccc2)CC1 | 7.5 | 1.33 | 2.23
6 | c1ccc(CCCN2CCN(CCCn3nnnc3C(c3ccccc3)c3ccccc3)CC2)cc1 | 8 | 0.569 | 1.64
7 | Fc1ccc(C(OCCN2CCN(c3cccc(Cl)c3Cl)CC2)c2ccc(F)cc2)cc1 | 5 | 3 | 3
8 | Fc1ccc(C(OCCN2CCN(c3ccccc3Cl)CC2)c2ccc(F)cc2)cc1 | > 10 | 1.26 | 5.6
9 | Fc1ccc(C(OCCN2CCC(Cc3ccccc3)CC2)c2ccc(F)cc2)cc1 | 1.67 | 5.86 | 6.82
10 | c1ccc(CC2CCN(CCCn3nnnc3C(c3ccccc3)c3ccccc3)CC2)cc1 | > 10 | 0.519 | 0.094
11 | c1ccc(CN2CCN(CCCn3nnnc3C(c3ccccc3)c3ccccc3)CC2)cc1 | 5.05 | 0.521 | 0.292
12 | c1ccc(CCN2CCN(CCCCn3nnnc3C(c3ccccc3)c3ccccc3)CC2)cc1 | 8 | 0.329 | 0.608
13 | C(=C\c1ccccc1)/CN1CCN(CCCCn2nnnc2C(c2ccccc2)c2ccccc2)CC1 | 6.29 | 0.318 | 3.64
14 | Fc1ccc(C(OCCN2CCN(c3ccccn3)CC2)c2ccc(F)cc2)cc1 | 0.579 | 0.603 | 0.99
15 | Fc1ccc(C(OCCN2CCN(c3ccc(Cl)cc3Cl)CC2)c2ccc(F)cc2)cc1 | 3.91 | 3.75 | 10
16 | c1ccc(CCN2CCN(CCn3nnnc3C(c3ccccc3)c3ccccc3)CC2)cc1 | 4.83 | 2.83 | 0.68
17 | Fc1ccc(C(OCCN2CCN(c3cccc(Cl)c3)CC2)c2ccc(F)cc2)cc1 | 4.96 | 1.31 | 2.75
18 | c1ccc(CCCN2CCN(CCn3nnnc3C(c3ccccc3)c3ccccc3)CC2)cc1 | 3.86 | 1.47 | 0.692
19 | Fc1ccc(C(OCCN2CCN(c3ccc(Cl)cc3)CC2)c2ccc(F)cc2)cc1 | 6.91 | 1.59 | 1.39
20 | c1ccc(CC2CCN(CCn3nnnc3C(c3ccccc3)c3ccccc3)CC2)cc1 | 7.7 | 1.71 | 0.31
21 | Fc1ccc(C(OCCN2CCN(c3ccccc3)CC2)c2ccc(F)cc2)cc1 | 1.91 | 5.33 | 10
22 | c1ccc(CN2CCN(CCn3nnnc3C(c3ccccc3)c3ccccc3)CC2)cc1 | > 10 | 4.22 | 2.29
23 | c1ccc(CCN2CCN(CCCn3nnnc3C(c3ccccc3)c3ccccc3)CC2)cc1 | 1.12 | 0.4 | 1.11
24 | c1ccc(CC2CCN(CCCCn3nnnc3C(c3ccccc3)c3ccccc3)CC2)cc1 | 0.55 | 1.53 | 0.59
25 | C(=C\c1ccccc1)/CN1CCN(CCn2nnnc2C(c2ccccc2)c2ccccc2)CC1 | > 10 | 1.76 | 0.94
26 | Fc1ccc(C(OCCN2CCN(c3ccc(Cl)c(Cl)c3)CC2)c2ccc(F)cc2)cc1 | 5.22 | 1.32 | 4.1
27 | c1ccc(CN2CCN(CCCCn3nnnc3C(c3ccccc3)c3ccccc3)CC2)cc1 | 1.5 | 0.323 | 0.317
28 | Fc1ccc(C(OCCN2CCN(c3ncccn3)CC2)c2ccc(F)cc2)cc1 | 1.41 | 1.62 | 1.7
